Source: patent US10556860B2, “hTERT modulators and methods of use” (Arizona Board of Regents on Behalf of the University of …, priority 2015, dated 2020)

Assays:
[1] = target: WT 5-12 G-quadruplex of hTERT core promoter (FAM/TAMRA probe); assay: FRET assay for compound screening and Kd, WT probe; assay type: binding, human
Method: FRET assay for compound screening and determination of Kd value. FRET probes of WT, G124/125A, and G146A of the 5-12 G-quadruplex were synthesized and labeled with FAM (Ex. 490 nm/Em. 520 nm) and TAMRA (Ex. 560 nm/Em. 580 nm) at each end by MGW Operon Inc. The WT probe (50 nM) was annealed in a buffer containing 10 mM Tris-HCl (pH 7.5) and 5 mM KCl by heating at 95° C. for 5 min and slowly cooling to room temperature. Compounds (50 μM) and probe were incubated for 1 h at room temperature. The same volume of DMSO served as a control. For Kd value determination, the WT, G124/125A, and G146A probes were annealed, and then several concentrations of compound were treated for 1 h at room temperature. Dose-dependent fluorescence intensity at 520 nm was measured by a microplate reader (BioTek Synergy HT). The data were corrected with the blank signal of buffer and compound. The relative fluorescence intensity compared to DMSO was used for binding curve fitting to determine Kd value using GraphPad Prism software.
The hTERT core promoter region includes 12 runs of consecutive guanines that form two G-quadruplexes in tandem on the G-rich strand. […] When the G-quadruplex is folded, two fluorophores are in proximity, which leads to a decrease in FAM fluorescence. […]

[2] = test system: hTERT mRNA in melanoma cells carrying WT, G124A, G124/125A, G138/139A and G146A; assay: qPCR of hTERT mRNA in melanoma cells (WT and mutants); assay type: cell-based, human; conditions: WT and all mutant melanoma cells, 72 h, 1 μM
Method: Cell cultures. MCF7 and melanoma (UACC 383) cells were cultured in media of RPMI-1640 with 10% FBS and 1% penicillin/streptomycin. For melanoma cells UACC 2512, UACC 3090, UACC 1729, and UACC 2528, 20% FBS was included in the RPMI media instead of 10% FBS. Cells were incubated at 37° C. with 5% CO2.
qPCR. MCF7 and melanoma cells were treated with GTC365 and BRACO-19 for 72 h. Total RNA was extracted using an RNeasy mini-prep kit (Qiagen) and quantitated by measuring absorbance at 260 nm. cDNA was synthesized using a Takara PrimeScript™ RT Reagent Kit with gDNA eraser and then used as a template for qPCR. The qPCR was performed using Kapa Probe Fast qPCR Master Mix with ABI Taqman probes of hTERT (Hs00972656_m1), BCL2 (HS00608023_m1, FAM-labeled) or MYC (Hs00153408_m1), and GAPDH (Hs02758991_g1, VIC-labeled). The Ct values were measured by running Rotor-Gene Q, and the relative quantity of hTERT, BCL2, and MYC mRNA was obtained compared to GAPDH as an internal control.
To determine the cellular effect of GTC365 on proliferation as well as suppression of the activation of hTERT by G124A, G124/125A, G138/139A, and G146A mutants, melanoma cell lines were used alongside a WT cell line. All mutants increased the mRNA level of hTERT, compared to WT melanoma cells, in the 6.6-34-fold range. […]

[3] = test system: pGL3 constructs that contain the G124A, G124/125A, G138/139A, and G146A mutations; assay: Luciferase assay, somatic mutant constructs in MCF7 cells; assay type: cell-based, human; conditions: 24 h
Method: Luciferase assay. From gDNA extracted from HeLa cells, the hTERT core promoter region, including −350 bp to +12 from the transcription start site, was amplified using a pair of primers, including KpnI and NheI restriction sites, for cloning of pGL3-hTERT with WT promoter sequence. Mutant constructs were generated by PCR-based site-directed mutagenesis. The sequence of each construct was confirmed by sequencing analysis. MCF7 cells in 24-well plate were transfected with 200 ng of pGL3 construct and 5 ng of pRL-TK by Fugene® HD Transfection Reagent and then incubated for 6 h. Media were replaced by fresh ones and the cells were treated with GTC365 or BRACO-19. The same volume of DMSO served as a control. After 24 h of incubation, cells were lysed by passive lysis buffer (Promega) and subjected to dual-luciferase assay (Promega) using an FB12 luminometer. The ratio of firefly to renilla luciferase activity was normalized to the DMSO to obtain the relative luciferase activity.
The effect of GTC365 on the somatic mutants in the hTERT promoter region was also examined by transfecting cells with pGL3 constructs that contain the G124A, G124/125A, G138/139A, and G146A mutations.

## N=C(N)NCCCS(=O)(=O)Nc1ccc(Nc2c3ccccc3nc3cc([N+](=O)[O-])ccc23)cc1 [GTC365]
[1]; WT probe, FAM- and TAMRA-labeled oligomer
  Kd: ~400 nM
[1]; compounds 50 μM, WT probe 50 nM, 10 mM Tris-HCl, 5 mM KCl, 1 h
  reduction of fluorescence intensity (FRET): 94%
[2]
  decrease in the mRNA level of hTERT: 25%
[3]
  luciferase activity of the mutants: decreased luciferase activity of the mutants in a dose-dependent manner
